In PubChem BioAssay (NCI):
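Following 48 hours of exposure in 96-well plates, responses at five concentrations were used to interpolate endpoints linearly. The concentration for 50% growth inhibition is given as GI50. Definition used: TGI = concentration required for complete inhibition of growth.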

Assays:
Assay in all cases: growth of human tumour cells (NCI), 48 h
HOP-18 NSCLC = test system: HOP-18 NSCLC
LXFL 529 NSCLC = test system: LXFL 529 NSCLC
HCT-15 colon = test system: HCT-15 colon
ACHN renal = test system: ACHN renal
A498 renal = test system: A498 renal
COLO 205 colon = test system: COLO 205 colon
KM20L2 colon = test system: KM20L2 colon
SF-295 CNS = test system: SF-295 CNS
MALME-3M melanoma = test system: MALME-3M melanoma
SW-620 colon = test system: SW-620 colon
MOLT-4 leukemia = test system: MOLT-4 leukemia
SNB-78 CNS = test system: SNB-78 CNS
UACC-62 melanoma = test system: UACC-62 melanoma
SK-MEL-28 melanoma = test system: SK-MEL-28 melanoma
M19-MEL melanoma = test system: M19-MEL melanoma
SF-268 CNS = test system: SF-268 CNS
SK-MEL-5 melanoma = test system: SK-MEL-5 melanoma
SNB-19 CNS = test system: SNB-19 CNS
LOX IMVI melanoma = test system: LOX IMVI melanoma
HOP-62 NSCLC = test system: HOP-62 NSCLC
IGROV1 ovarian = test system: IGROV1 ovarian
K-562 leukemia = test system: K-562 leukemia
SF-539 CNS = test system: SF-539 CNS
HCC-2998 colon = test system: HCC-2998 colon
RXF 393 renal = test system: RXF 393 renal
XF 498 CNS = test system: XF 498 CNS
KM12 colon = test system: KM12 colon
UO-31 renal = test system: UO-31 renal
M14 melanoma = test system: M14 melanoma
RPMI-8226 leukemia = test system: RPMI-8226 leukemia
OVCAR-5 ovarian = test system: OVCAR-5 ovarian
HL-60(TB) leukemia = test system: HL-60(TB) leukemia
UACC-257 melanoma = test system: UACC-257 melanoma
HT29 colon = test system: HT29 colon
TK-10 renal = test system: TK-10 renal
EKVX NSCLC = test system: EKVX NSCLC
SK-OV-3 ovarian = test system: SK-OV-3 ovarian
NCI-H460 lung = test system: NCI-H460 lung
SK-MEL-2 melanoma = test system: SK-MEL-2 melanoma
OVCAR-4 ovarian = test system: OVCAR-4 ovarian
DLD-1 colon = test system: DLD-1 colon
OVCAR-8 ovarian = test system: OVCAR-8 ovarian
SN12C renal = test system: SN12C renal
SNB-75 CNS = test system: SNB-75 CNS
DMS 273 small cell lung = test system: DMS 273 small cell lung
A549 NSCLC = test system: A549 NSCLC
U251 CNS = test system: U251 CNS
CAKI-1 renal = test system: CAKI-1 renal
CCRF-CEM leukemia = test system: CCRF-CEM leukemia
786-0 renal = test system: 786-0 renal
DMS 114 small cell lung = test system: DMS 114 small cell lung
OVCAR-3 ovarian = test system: OVCAR-3 ovarian
NCI-H23 lung = test system: NCI-H23 lung

Structure (SMILES): [C-]#[O+].[C-]#[O+].[C-]#[O+].[C-]#[O+].[O-]C(c1ccccc1[PH+]1OC(C(F)(F)F)(C(F)(F)F)c2ccccc21)(C(F)(F)F)C(F)(F)F.[Re] (stereo unspecified)
- GI50 (HOP-18 NSCLC): 7.89 µM
- TGI (HOP-18 NSCLC): 21.1 µM
- GI50 (LXFL 529 NSCLC): 2010 nM
- TGI (LXFL 529 NSCLC): 4.26 µM
- GI50 (HCT-15 colon): 5.72 µM
- TGI (HCT-15 colon): 20.6 µM
- GI50 (ACHN renal): 3.75 µM
- TGI (ACHN renal): 12.9 µM
- GI50 (A498 renal): 2500 nM
- TGI (A498 renal): 8.19 µM
- GI50 (COLO 205 colon): 2320 nM
- TGI (COLO 205 colon): 5.74 µM
- GI50 (KM20L2 colon): 2200 nM
- TGI (KM20L2 colon): 13.7 µM
- GI50 (SF-295 CNS): 4.97 µM
- TGI (SF-295 CNS): 18.3 µM
- GI50 (MALME-3M melanoma): 2330 nM
- TGI (MALME-3M melanoma): 5.07 µM
- GI50 (SW-620 colon): 3.87 µM
- TGI (SW-620 colon): 13.5 µM
- GI50 (MOLT-4 leukemia): 2500 nM
- TGI (MOLT-4 leukemia): 6.39 µM
- GI50 (SNB-78 CNS): 3.7 µM
- TGI (SNB-78 CNS): 19.5 µM
- GI50 (UACC-62 melanoma): 2120 nM
- TGI (UACC-62 melanoma): 4.92 µM
- GI50 (SK-MEL-28 melanoma): 2560 nM
- TGI (SK-MEL-28 melanoma): 6.8 µM
- GI50 (M19-MEL melanoma): 3.59 µM
- TGI (M19-MEL melanoma): 14.4 µM
- GI50 (SF-268 CNS): 6.18 µM
- TGI (SF-268 CNS): 23.5 µM
- GI50 (SK-MEL-5 melanoma): 6.33 µM
- TGI (SK-MEL-5 melanoma): 20.6 µM
- GI50 (SNB-19 CNS): 11.5 µM
- TGI (SNB-19 CNS): 33.5 µM
- GI50 (LOX IMVI melanoma): 2590 nM
- TGI (LOX IMVI melanoma): 6.2 µM
- GI50 (HOP-62 NSCLC): 7.54 µM
- TGI (HOP-62 NSCLC): 24 µM
- GI50 (IGROV1 ovarian): 3.46 µM
- TGI (IGROV1 ovarian): 14.8 µM
- GI50 (K-562 leukemia): 2690 nM
- TGI (K-562 leukemia): 11.1 µM
- GI50 (SF-539 CNS): 2850 nM
- TGI (SF-539 CNS): 8.68 µM
- GI50 (HCC-2998 colon): 5.11 µM
- TGI (HCC-2998 colon): 18.3 µM
- GI50 (RXF 393 renal): 1900 nM
- TGI (RXF 393 renal): 4.04 µM
- GI50 (XF 498 CNS): 2960 nM
- TGI (XF 498 CNS): 10.3 µM
- GI50 (KM12 colon): 3.9 µM
- TGI (KM12 colon): 12.5 µM
- GI50 (UO-31 renal): 2580 nM
- TGI (UO-31 renal): 7.02 µM
- GI50 (M14 melanoma): 1990 nM
- TGI (M14 melanoma): 4.01 µM
- GI50 (RPMI-8226 leukemia): 2890 nM
- TGI (RPMI-8226 leukemia): 12.5 µM
- GI50 (OVCAR-5 ovarian): 5 µM
- TGI (OVCAR-5 ovarian): 18.6 µM
- GI50 (HL-60(TB) leukemia): 2810 nM
- TGI (HL-60(TB) leukemia): 11.4 µM
- GI50 (UACC-257 melanoma): 2260 nM
- TGI (UACC-257 melanoma): 4.28 µM
- GI50 (HT29 colon): 3.6 µM
- TGI (HT29 colon): 12.2 µM
- GI50 (TK-10 renal): 7.26 µM
- TGI (TK-10 renal): 21.7 µM
- GI50 (EKVX NSCLC): 7.51 µM
- TGI (EKVX NSCLC): 25.4 µM
- GI50 (SK-OV-3 ovarian): 14.7 µM
- TGI (SK-OV-3 ovarian): 30.2 µM
- GI50 (NCI-H460 lung): 2920 nM
- TGI (NCI-H460 lung): 8.97 µM
- GI50 (SK-MEL-2 melanoma): 4.88 µM
- TGI (SK-MEL-2 melanoma): 18.2 µM
- GI50 (OVCAR-4 ovarian): 2880 nM
- TGI (OVCAR-4 ovarian): 8.53 µM
- GI50 (DLD-1 colon): 5.1 µM
- TGI (DLD-1 colon): 21.1 µM
- GI50 (OVCAR-8 ovarian): 3.65 µM
- TGI (OVCAR-8 ovarian): 15.6 µM
- GI50 (SN12C renal): 3.63 µM
- TGI (SN12C renal): 13.4 µM
- GI50 (SNB-75 CNS): 4.65 µM
- TGI (SNB-75 CNS): 15.6 µM
- GI50 (DMS 273 small cell lung): 2930 nM
- TGI (DMS 273 small cell lung): 9.78 µM
- GI50 (A549 NSCLC): 4.56 µM
- TGI (A549 NSCLC): 19.2 µM
- GI50 (U251 CNS): 3.05 µM
- TGI (U251 CNS): 14.1 µM
- GI50 (CAKI-1 renal): 5.45 µM
- TGI (CAKI-1 renal): 20.8 µM
- GI50 (CCRF-CEM leukemia): 2390 nM
- TGI (CCRF-CEM leukemia): 5.83 µM
- GI50 (786-0 renal): 4.26 µM
- TGI (786-0 renal): 15.3 µM
- GI50 (DMS 114 small cell lung): 2780 nM
- TGI (DMS 114 small cell lung): 8.82 µM
- GI50 (OVCAR-3 ovarian): 2770 nM
- TGI (OVCAR-3 ovarian): 7.58 µM
- GI50 (NCI-H23 lung): 2360 nM
- TGI (NCI-H23 lung): 5.25 µM
